Tests used:
Apelin receptor APJ = experiment: cAMP luciferase assay in APJ-expressing NIH3T3 cells (screening system for apelin-like agents); type: cell-based; conditions: FIG. 3
Experimental: A cAMP luciferase reporter vector was transfected into a stable cell line, which was obtained by highly expressing Apelin receptor APJ in NIH3T3 cells, and then subjecting to selection with hygromycin (provided by Professor Nobuyuki Takakura of the Research Institute for Microbial Diseases of Osaka University), and these were used in the cAMP luciferase assay described below. Culturing was carried out in DMEM medium containing 10% FBS containing 200 µg/ml of hygromycin (Invitrogen). On the day before the assay, 2.0 x 10^5 cells were seeded into each well of a 96-well plate followed by culturing in DMEM medium containing 10% FBS and 200 µg/ml of hygromycin.
After culturing overnight, the medium was removed by aspiration and replaced with 100 µl of additive-free DMEM per well. Three hours later, Glosensor™ cAMP Reagent (Promega) was added at 4 µl per well followed by equilibrating for 2 hours at room temperature under light blocking. Subsequently, apelin 13 (Peptide Institute) was diluted with additive-free DMEM medium to a concentration of 0.4 µg/ml and this was added at 50 µl per well (final concentration: 0.1 µg/ml) followed by incubating for 5 minutes at room temperature. […] Subsequently, luminescence was measured with the GloMax™ 96 Microplate Luminometer (Promega). […]

menopausal mice = conditions: apelin highly expressed in epidermis (K14 promoter transgene, OVXTG) vs OVXWT; nifedipine 50 µg/kg i.p.; 10, 30 and 45 minutes; FIG. 1
Experimental: Ovariectomy was performed on C57/BL6 mice highly expressing apelin in the epidermis under the control of a K14 promoter (herein after referred to as apelin-highly expressed mice, apelin TG or TG) and the corresponding wild-type mice (C57/BL6) (n=5, 8 to 10 week-old) to obtain menopausal mice highly expressing apelin and menopausal wild type mice. Furthermore, wild type mice that underwent sham surgery were used as a control. Four weeks later, nifedipine (50 µg/kg) was administered intraperitoneally as a vasodilator, and changes in tail temperature were analyzed using thermography (Thermo Tracer TH9011MR, NEC/Avio Infrared Technologies Co., Ltd.) at 10, 30 and 45 minutes after administration.

apelin
cAMP concentration (Apelin receptor APJ; apelin 13 final concentration 0.1 µg/ml, forskolin final 10 µM, versus forskolin-only control): decreased
decreases in cAMP concentration in the presence of apelin neutralizing antibody (Apelin receptor APJ; apelin final 0.5 µg/ml together with neutralizing antibody 4G5 at 1.5, 5, 15 and 50 µg/ml): suppressed
transient rises in body temperature (tail temperature) caused by hot flashes (menopausal mice): able to suppress or improve transient rises in body temperature caused by hot flashes in a short period of time

Reference: patent EP2692352A1, “HOT FLASH SUPPRESSANT” (Shiseido Company, Ltd., priority 2011, dated 2014)
